Experiment: excess molar enthalpy (molar enthalpy of mixing); xn = mol fraction of the nth substance listed
Conditions: 101.3 kPa, Liquid, Flow calorimetry

COC(=O)CC(C)=O [methyl 3-oxobutanoate] + CCO
excess molar enthalpy [kJ/mol]
Conditions | 288.2 K | 298.2 K | 313.2 K | 328.2 K
x1 = 0.1003 | 0.733 | 0.786 | 0.878 | 0.952
x1 = 0.2002 | 1.16 | 1.27 | 1.44 | 1.55
x1 = 0.2995 | 1.42 | 1.58 | 1.77 | 1.89
x1 = 0.3494 | 1.51 | 1.67 | 1.89 | 2
x1 = 0.3995 | 1.57 | 1.74 | 1.97 | 2.1
x1 = 0.4495 | 1.61 | 1.78 | 2.01 | 2.13
x1 = 0.5008 | 1.62 | 1.79 | 2.01 | 2.13
x1 = 0.5497 | 1.61 | 1.77 | 1.99 | 2.1
x1 = 0.5995 | 1.57 | 1.73 | 1.93 | 2.02
x1 = 0.65 | 1.5 | 1.65 | 1.84 | 1.91
x1 = 0.7011 | 1.41 | 1.53 | 1.7 | 1.75
x1 = 0.7996 | 1.12 | 1.2 | 1.31 | 1.33
x1 = 0.9006 | 0.647 | 0.686 | 0.725 | 0.728

COC(=O)CC(C)=O [methyl 3-oxobutanoate] + CO
excess molar enthalpy [kJ/mol]
Conditions | 288.2 K | 298.2 K | 313.2 K | 328.2 K
x1 = 0.1004 | 0.533 | 0.567 | 0.619 | 0.664
x1 = 0.2001 | 0.875 | 0.93 | 1.03 | 1.09
x1 = 0.3 | 1.1 | 1.17 | 1.28 | 1.38
x1 = 0.3506 | 1.17 | 1.25 | 1.37 | 1.47
x1 = 0.4003 | 1.22 | 1.29 | 1.42 | 1.52
x1 = 0.4497 | 1.25 | 1.32 | 1.45 | 1.55
x1 = 0.5001 | 1.26 | 1.34 | 1.46 | 1.55
x1 = 0.551 | 1.25 | 1.31 | 1.45 | 1.53
x1 = 0.5993 | 1.21 | 1.29 | 1.4 | 1.48
x1 = 0.6492 | 1.16 | 1.22 | 1.32 | 1.39
x1 = 0.7004 | 1.08 | 1.14 | 1.22 | 1.28
x1 = 0.7993 | 0.847 | 0.878 | 0.929 | 0.973
x1 = 0.8988 | 0.494 | 0.49 | 0.521 | 0.539
